Data set [1] relates to human embryonic stem cell derived neural stem cells (NSCs). Description: Neural stem cell proliferation assay (neurogenesis assay, ATP levels by CellTiterGlo). The data set is classed as cell-based. The conditions noted are these: 96 h, compound concentration at which 150% activity of control (100%) is reached, ATP levels after 4 days incubation, dose response 8 μM to 8 nM. The protocol: Neural Stem Cell Proliferation Assay
Neurogenic properties of small molecules are determined based on the proliferation of human embryonic stem cell derived neural stem cells (NSCs) which were derived via a dual smad inhibition as previously described (Chambers, S. M., et al., Highly efficient neural conversion of human ES and iPS cells by dual inhibition of SMAD signaling, Nature biotechnology, 2009. 27(3): p. 275-80.)
Compounds respond is measured by the increase in cells based on ATP levels (Promega:CellTiterGlo®) after an incubation period of 4 days.
NSCs are thawed and expanded over 3 passages. On the 14th day, NSCs are seeded in Polyornithin/Laminin coated 384 well plates at a cell density of 21′000 cells/cm^2 in a media volume of 38 μl.
4 hours after cell seeding, compound solutions are added at a volume of 2 μl. Stock solutions of the compounds (water, 5% DMSO) are diluted to obtain a dose response (11 points, dilution factor is 2), ranging from 8 μM to 8 nM. Controls are run to consistently determine the neurogenic properties of the cells: • Negative (neutral) control is cell culture Media (final DMSO concentration: 0.25%). Positive controls are: • 1. cell culture Media+100 ng/ml FGF2 (final DMSO concentration: 0.1%) • 2. cell culture Media+20 ng/ml EGF (final DMSO concentration: 0.1%) • 3. cell culture Media+100 ng/ml Wnt3a (final DMSO concentration: 0.1%)
After 4 days incubation at 37° C., 5% CO2, the amount of ATP per well is quantified. The ATP concentration is proportional to the cell number. ATP is quantified by using the Promega CellTiterGlo® kit. The CellTiterGlo® reagents contain a cell lysis buffer, a thermo stable luciferase (UltraGlo™ recombinant luciferase), magnesium and luciferin. Luciferin reacts with ATP producing oxyluciferin, AMP and light. The luminescence signal is proportional to the ATP content.
The value of negative (neutral) control is determined for each assay plate by taking the average of 16 negative control wells. The neurogenic compound response is calculated for each compound as (compound/Negative Control)* 100.
The values of EC150 from the dose response curve are determined for each test compound. The EC150 is the compound concentration at which 150% activity of control (100%) is reached.

In general, melting point refers to the temperature of the solid-liquid transition.

As for `COc1ccc(-c2onc3ccc(-c4ccnn4-c4ccccc4F)cc23)cc1F` [Example 36, 3-(3-Fluoro-4-methoxy-phenyl)-5-[2-(2-fluoro-phenyl)-2H-pyrazol-3-yl]-benzo[c]isoxazole], the melting point was 168 °C. The EC (150% of control) in data set [1] was determined as 0.16 µM.

`COc1ccc(-n2nccc2-c2ccc3noc(-c4ccc(Cl)cc4)c3c2)cc1` [Example 23, 3-(4-Chloro-phenyl)-5-[2-(4-methoxy-phenyl)-2H-pyrazol-3-yl]-benzo[c]isoxazole]: the melting point worked out at 177 °C. For the same molecule, in data set [1], the EC (150% of control) is 0.31 µM.

The molecule `COc1ccc(-n2nccc2-c2ccc3noc(-c4ccc(C)cc4)c3c2)cc1` [Example 22, 5-[2-(4-Methoxy-phenyl)-2H-pyrazol-3-yl]-3-p-tolyl-benzo[c]isoxazole] yielded a melting point of 159 °C. Also, the EC (150% of control) in data set [1] was 0.18 µM.

Consider `Fc1ccc(-c2onc3ccc(-c4ccnn4-c4cccc(F)c4)cc23)cc1` [Example 9, 3-(4-Fluoro-phenyl)-5-[2-(3-fluoro-phenyl)-2H-pyrazol-3-yl]-benzo[c]isoxazole], for which the melting point was 175 °C. Besides, in data set [1], the EC (150% of control) was determined as 2.8 µM.

`Fc1ccc(-n2nccc2-c2ccc3noc(-c4ccc(C(F)(F)F)cc4)c3c2)c(F)c1` [Example 31, 5-[2-(2,4-Difluoro-phenyl)-2H-pyrazol-3-yl]-3-(4-trifluoromethyl-phenyl)-benzo[c]isoxazole] displayed a melting point of 159 °C. Also, the EC (150% of control) in data set [1] worked out at 0.96 µM.

Consider `Fc1cccc(-c2onc3ccc(-c4ccnn4-c4ccc(Cl)cc4)cc23)c1` [Example 26, 5-[2-(4-Chloro-phenyl)-2H-pyrazol-3-yl]-3-(3-fluoro-phenyl)-benzo[c]isoxazole], for which the melting point stood at 184 °C. The EC (150% of control) in data set [1] is 1.3 µM.

The molecule `Clc1ccc(-c2onc3ccc(-c4ccnn4-c4ccc(Cl)cc4)cc23)cc1` [Example 27, 3-(4-Chloro-phenyl)-5-[2-(4-chloro-phenyl)-2H-pyrazol-3-yl]-benzo[c]isoxazole] registered a melting point of 222 °C. In data set [1], this molecule yielded an EC (150% of control) of 0.46 µM.

The molecule `COc1ccc(-c2onc3ccc(-c4ccnn4-c4ccc(F)cc4F)cc23)cc1` [Example 33, 5-[2-(2,4-Difluoro-phenyl)-2H-pyrazol-3-yl]-3-(4-methoxy-phenyl)-benzo[c]isoxazole] had a melting point of 165 °C. Also, the EC (150% of control) in data set [1] was 0.068 µM.

`COc1ccc(-c2onc3ccc(-c4ccnn4-c4ccc(F)cc4)cc23)cc1F` [Example 37, 3-(3-Fluoro-4-methoxy-phenyl)-5-[2-(4-fluoro-phenyl)-2H-pyrazol-3-yl]-benzo[c]isoxazole] came in with a melting point of 162 °C. In data set [1], this molecule displayed an EC (150% of control) of 1.1 µM.

In the case of `Clc1ccc(-c2onc3ccc(-c4ccnn4-c4ccccc4Cl)cc23)cc1` [Example 42, 3-(4-Chloro-phenyl)-5-[2-(2-chloro-phenyl)-2H-pyrazol-3-yl]-benzo[c]isoxazole], the melting point was 172 °C. The EC (150% of control) in data set [1] was determined as 0.3 µM.

Take `Cc1ccc(-n2nccc2-c2ccc3noc(-c4ccc(Cl)cc4)c3c2)cc1` [Example 18, 3-(4-Chloro-phenyl)-5-(2-p-tolyl-2H-pyrazol-3-yl)-benzo[c]isoxazole]: the melting point was determined as 204 °C. For the same molecule, the EC (150% of control) in data set [1] came out at 0.093 µM.

For `Fc1ccccc1-n1nccc1-c1ccc2noc(-c3ccc(Br)cc3)c2c1` [Example 7, 3-(4-Bromo-phenyl)-5-[2-(2-fluoro-phenyl)-2H-pyrazol-3-yl]benzo[c]isoxazole], the melting point was 202 °C. In data set [1], this molecule gave an EC (150% of control) of 0.054 µM.

In turn, `c1ccc(-c2onc3ccc(-c4ccnn4-c4ccccc4)cc23)cc1` [Example 34, 3-Phenyl-5-(2-phenyl-2H-pyrazol-3-yl)-benzo[c]isoxazole] came in with a melting point of 163 °C. Besides, the EC (150% of control) in data set [1] was found to be 0.13 µM.

`COc1ccc(-c2onc3ccc(-c4ccnn4-c4ccc(OC)cc4)cc23)cc1` [Example 24, 3-(4-Methoxy-phenyl)-5-[2-(4-methoxy-phenyl)-2H-pyrazol-3-yl]-benzo[c]isoxazole] displayed a melting point of 133 °C. The same molecule gave an EC (150% of control) in data set [1] of 0.26 µM.

The molecule `Cc1ccc(-c2onc3ccc(-c4ccnn4-c4ccc(F)cc4)cc23)cc1` [Example 11, 5-[2-(4-Fluoro-phenyl)-2H-pyrazol-3-yl]-3-p-tolyl-benzo[c]isoxazole] returned a melting point of 158 °C. The molecule also came in with an EC (150% of control) in data set [1] of 0.23 µM.

Regarding `Fc1ccc(-c2onc3ccc(-c4ccnn4-c4ccc(Cl)cc4)cc23)cc1` [Example 25, 5-[2-(4-Chloro-phenyl)-2H-pyrazol-3-yl]-3-(4-fluoro-phenyl)-benzo[c]isoxazole], the melting point came to 154 °C. In addition, the EC (150% of control) in data set [1] was determined as 0.32 µM.

`Cc1ccc(-n2nccc2-c2ccc3noc(-c4ccc(F)cc4)c3c2)cc1` [Example 14, 3-(4-Fluoro-phenyl)-5-(2-p-tolyl-2H-pyrazol-3-yl)-benzo[c]isoxazole] displayed a melting point of 173 °C. The molecule also displayed an EC (150% of control) in data set [1] of 0.091 µM.

`Cc1ccc(-n2nccc2-c2ccc3noc(-c4cccc(F)c4)c3c2)cc1` [Example 15, 3-(3-Fluoro-phenyl)-5-(2-p-tolyl-2H-pyrazol-3-yl)-benzo[c]isoxazole] showed a melting point of 207 °C. In data set [1], this molecule gave an EC (150% of control) of 0.14 µM.

`Cc1ccc(-c2onc3ccc(-c4ccnn4-c4ccccc4F)cc23)cc1` [Example 3, 5-[2-(2-Fluoro-phenyl)-2H-pyrazol-3-yl]-3-p-tolyl-benzo[c]isoxazole] showed a melting point of 173 °C. In addition, in data set [1], the EC (150% of control) turned out to be 0.12 µM.

Turning to `Fc1ccc(-c2onc3ccc(-c4ccnn4-c4ccccc4F)cc23)cc1` [Example 1, 3-(4-Fluoro-phenyl)-5-[2-(2-fluoro-phenyl)-2H-pyrazol-3-yl]-benzo[c]isoxazole], the melting point was found to be 171 °C. The EC (150% of control) in data set [1] is 0.12 µM.

`Fc1cccc(-c2onc3ccc(-c4ccnn4-c4ccc(F)cc4F)cc23)c1` [Example 29, 5-[2-(2,4-Difluoro-phenyl)-2H-pyrazol-3-yl]-3-(3-fluoro-phenyl)-benzo[c]isoxazole] returned a melting point of 165 °C. In data set [1], this molecule yielded an EC (150% of control) of 0.25 µM.

The molecule `COc1ccc(-n2nccc2-c2ccc3noc(-c4ccc(F)cc4)c3c2)cc1` [Example 20, 3-(4-Fluoro-phenyl)-5-[2-(4-methoxy-phenyl)-2H-pyrazol-3-yl]-benzo[c]isoxazole] gave a melting point of 179 °C. For the same molecule, in data set [1], the EC (150% of control) was 0.36 µM.

Regarding `Cc1ccc(-n2nccc2-c2ccc3noc(-c4ccc(F)c(F)c4)c3c2)cc1` [Example 38, 3-(3,4-Difluoro-phenyl)-5-(2-p-tolyl-2H-pyrazol-3-yl)-benzo[c]isoxazole], the melting point came out at 198 °C. Further, the EC (150% of control) in data set [1] was found to be 0.48 µM.

Regarding `Fc1ccc(-n2nccc2-c2ccc3noc(-c4cccc(F)c4)c3c2)cc1` [Example 10, 3-(3-Fluoro-phenyl)-5-[2-(4-fluoro-phenyl)-2H-pyrazol-3-yl]-benzo[c]isoxazole], the melting point was 176 °C. In data set [1], this molecule yielded an EC (150% of control) of 0.56 µM.

The record behind these values is patent publication US9440962B2, “Benzisoxazoles” (Hoffmann-La Roche Inc., priority 2012, dated 2016).
